# Measurements reported in article PMC10066365, “Nemacol is a small molecule inhibitor of C. elegans vesicular acetylcholine transporter with anthelmintic potential” (Nature Communications, 2023).
# Several values for one entry are separate records, joined by “and”; a condition that tells them apart may be missing. Equal entries are not always repeated.
# Legend:
# [1] = system: Dirofilaria immitis microfilariae; assay: Dirofilaria immitis microfilariae immobility assay (DiroImager, 72 h); conditions: for % effect (motility), DIROIM MF: Dirofilaria immitis microfilariae; for EC50: Dirofilaria immitis, 72 h, read-out: Dirofilaria immitis filariae EC50
# In short: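 Motility read after 72 h drug exposure with an image-based high-throughput plate imager, 1% DMSO medium serving as negative control. Missouri-isolate microfilariae, roughly 250 per well, freshly purified and cultured in supplemented RPMI 1640.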
# [2] = biological target: T1, rat VAChT (Rattus norvegicus, UniProt Q62666); assay: [3H]Vesamicol competitive radioligand binding, PC12 cells expressing ratVAChT; conditions: for Ki: [3H]Vesamicol displacement, mean, read-out: ratVAChT Ki; for specific binding in % of total binding (corrected by nonspecific binding NB), mean: rVAChT-PC12, 21°C, 1% DMSO
# T1 construct: expressed in transfected cells; host or cells: rat PC12 (PC12 A123.7) cells, stably transfected; shared by Dr. Ali Roghani (Texas Tech University)
# T1 sequence (Q62666 1-530): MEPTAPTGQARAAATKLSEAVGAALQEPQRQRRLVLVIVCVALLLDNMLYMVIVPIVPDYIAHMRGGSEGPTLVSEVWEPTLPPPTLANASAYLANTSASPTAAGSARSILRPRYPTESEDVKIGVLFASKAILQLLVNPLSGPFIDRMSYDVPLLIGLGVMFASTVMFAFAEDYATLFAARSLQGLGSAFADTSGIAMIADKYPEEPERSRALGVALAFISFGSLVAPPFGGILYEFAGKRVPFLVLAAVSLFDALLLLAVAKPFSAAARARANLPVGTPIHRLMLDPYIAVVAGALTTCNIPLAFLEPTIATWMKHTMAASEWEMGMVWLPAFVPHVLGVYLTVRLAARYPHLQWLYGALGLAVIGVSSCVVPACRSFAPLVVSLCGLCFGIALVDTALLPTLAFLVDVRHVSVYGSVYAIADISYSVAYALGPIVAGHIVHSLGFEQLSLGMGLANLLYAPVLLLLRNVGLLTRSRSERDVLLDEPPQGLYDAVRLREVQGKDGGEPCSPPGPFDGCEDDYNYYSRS
# [3] = system: C. elegans; assay: C. elegans motor phenotype scoring on solid media (Punc/jerky-unc, coiled, paralyzed), wild-type young adults; type: in vivo, Caenorhabditis elegans; conditions: for any phene, mean % fraction of young adults exhibiting any phenotype (coiled, jerky-Unc or paralyzed) / atypical locomotion (number of animals) / coiled (number of animals) / no phene (number of animals) / paralyzed (number of animals) / any phene (mean % fraction of young adults exhibiting any phenotype: coiled, jerky-Unc or paralyzed): one hour; for any phene, mean % fraction of young adults exhibiting any phenotype (coiled, jerky-Unc or paralyzed) / any phene (mean % fraction of young adults exhibiting any phenotype: coiled, jerky-Unc or paralyzed): mean of three biological replicates; for atypical locomotion (number of animals) / coiled (number of animals) / no phene (number of animals) / paralyzed (number of animals): young adults, 20 animals per trial, single replicate counts; for EC50: Caenorhabditis elegans, any motor phenotype after 1 h on solid media, ± 95% CI, read-out: C. elegans - motor disruption EC50
# [4] = system: Pristionchus pacificus; assay: Pristionchus pacificus motor disruption dose-response on solid media, 1 h; conditions: for mean % any phene (coiled, jerky-Unc or paralyzed): Pristionchus pacificus young adults, mean of three biological replicates
# [5] = system: Dirofilaria immitis L3/L4; assay: Dirofilaria immitis L3/L4 motility assay (DiroImager, 72 h); conditions: for % effect (motility), DIROIM L4: Dirofilaria immitis L4
# [6] = system: C. elegans; assay: Suppression of trichlorfon (AChE inhibitor) paralysis, double dose-response, scored after 80 min; type: in vivo, Caenorhabditis elegans; conditions: for EC50: Caenorhabditis elegans, ± 95% CI; for % para (percentage of animals able to adopt a clear sinusoidal wave pattern upon touch on the nose): wild-type, bio rep 1-3
compound,measurement,setting,value
CC1CCC(N2CCN(c3ccc([N+](=O)[O-])cc3)CC2)CC1 (centres unmarked) [Nemacol-5],"% effect (motility), DIROIM MF",[1]; 0.08 µM,0%
same,"% effect (motility), DIROIM MF",[1]; 0.4 µM,0%
same,"% effect (motility), DIROIM MF",[1]; 2 µM,20%
same,"% effect (motility), DIROIM MF",[1]; 10 µM,80%
same,"% effect (motility), DIROIM MF",[1]; 50 µM,100%
same,EC50,[1],4.5 µM
same,Ki,[2],0.376 µM
same,"any phene, mean % fraction of young adults exhibiting any phenotype (coiled, jerky-Unc or paralyzed)",[3]; 3.75uM,3.333%
same,atypical locomotion (number of animals),[3]; 3.75uM,0 and 3 and 1
same,coiled (number of animals),[3]; 3.75uM,0
same,no phene (number of animals),[3]; 3.75uM,20 and 17 and 19
same,paralyzed (number of animals),[3]; 3.75uM,0
same,"any phene, mean % fraction of young adults exhibiting any phenotype (coiled, jerky-Unc or paralyzed)",[3]; 15uM,97.5%
same,atypical locomotion (number of animals),[3]; 15uM,9 and 12 and 13
same,coiled (number of animals),[3]; 15uM,10 and 6 and 5 and 4
same,no phene (number of animals),[3]; 15uM,0 and 3
same,paralyzed (number of animals),[3]; 15uM,1 and 2 and 0 and 3 and 5
same,"any phene, mean % fraction of young adults exhibiting any phenotype (coiled, jerky-Unc or paralyzed)",[3]; 60uM,100%
same,atypical locomotion (number of animals),[3]; 60uM,1 and 3 and 0 and 2 and 16 and 15
same,coiled (number of animals),[3]; 60uM,16 and 12 and 14 and 13 and 0
same,no phene (number of animals),[3]; 60uM,0
same,paralyzed (number of animals),[3]; 60uM,3 and 5 and 6 and 4
same,EC50,[3],7.3 ± 3.8 µM
same,"mean % any phene (coiled, jerky-Unc or paralyzed)","[4]; conc 3.75, observed at one hour",0%
same,"mean % any phene (coiled, jerky-Unc or paralyzed)","[4]; conc 15, observed at one hour",15%
same,"mean % any phene (coiled, jerky-Unc or paralyzed)","[4]; conc 60, observed at one hour",100%
same,EC50,"[4]; Pristionchus pacificus, 1 h, read-out: P. pacificus motor disruption EC50",16.5 µM
same,"% effect (motility), DIROIM L4",[5]; 0.016 µM,5%
same,"% effect (motility), DIROIM L4",[5]; 0.08 µM,0%
same,"% effect (motility), DIROIM L4",[5]; 0.4 µM,0%
same,"% effect (motility), DIROIM L4",[5]; 2 µM,10%
same,"% effect (motility), DIROIM L4",[5]; 10 µM,100%
same,"% effect (motility), DIROIM L4",[5]; 50 µM,100%
same,activity against D. immitis (EC50),[5]; either D. immitis assay of Fig. 4c,low micromolar activity
O=[N+]([O-])c1ccc(N2CCN(C3CCCCCC3)CC2)cc1 [Nemacol-19],"% effect (motility), DIROIM MF",[1]; 0.016 µM,0%
same,"% effect (motility), DIROIM MF",[1]; 0.08 µM,0%
same,"% effect (motility), DIROIM MF",[1]; 0.4 µM,0%
same,"% effect (motility), DIROIM MF",[1]; 2 µM,0%
same,"% effect (motility), DIROIM MF",[1]; 10 µM,40%
same,EC50,[1],10.7 µM
same,Ki,[2],0.462 µM
same,"any phene (mean % fraction of young adults exhibiting any phenotype: coiled, jerky-Unc or paralyzed)","[3]; 3.75uM, third c14 line of each analog",43.3333%
same,"any phene (mean % fraction of young adults exhibiting any phenotype: coiled, jerky-Unc or paralyzed)","[3]; 15uM, second c14 line of each analog",97.5%
same,EC50,[3],4.1 ± 1.4 µM
same,"% effect (motility), DIROIM L4",[5]; 2 µM,0%
same,"% effect (motility), DIROIM L4",[5]; 10 µM,0%
same,"% effect (motility), DIROIM L4",[5]; 50 µM,100%
O[C@@H]1CCCC[C@H]1N1CCC(c2ccccc2)CC1 [minus Vesamicol],"specific binding in % of total binding (corrected by nonspecific binding NB), mean","[2]; competitor 1.00E-05 M, experiment 2019-10-30, 2.92E-09 M 3H-vesamicol, 120 min",0.0405%
same,"specific binding in % of total binding (corrected by nonspecific binding NB), mean","[2]; competitor 1.00E-05 M, experiment 2019-11-21, 2.20E-09 M 3H-vesamicol, 90 min",1.18e-15%
same,"specific binding in % of total binding (corrected by nonspecific binding NB), mean","[2]; competitor 1.00E-06 M, experiment 2019-10-30, 2.92E-09 M 3H-vesamicol, 120 min",5%
same,"specific binding in % of total binding (corrected by nonspecific binding NB), mean","[2]; competitor 1.00E-06 M, experiment 2019-11-21, 2.20E-09 M 3H-vesamicol, 90 min",4%
same,"specific binding in % of total binding (corrected by nonspecific binding NB), mean","[2]; competitor 1.00E-07 M, experiment 2019-10-30, 2.92E-09 M 3H-vesamicol, 120 min",29%
same,"specific binding in % of total binding (corrected by nonspecific binding NB), mean","[2]; competitor 1.00E-07 M, experiment 2019-11-21, 2.20E-09 M 3H-vesamicol, 90 min",28%
same,"specific binding in % of total binding (corrected by nonspecific binding NB), mean","[2]; competitor 1.00E-08 M, experiment 2019-10-30, 2.92E-09 M 3H-vesamicol, 120 min",79%
same,"specific binding in % of total binding (corrected by nonspecific binding NB), mean","[2]; competitor 1.00E-08 M, experiment 2019-11-21, 2.20E-09 M 3H-vesamicol, 90 min",82%
same,"specific binding in % of total binding (corrected by nonspecific binding NB), mean","[2]; competitor 1.00E-09 M, experiment 2019-10-30, 2.92E-09 M 3H-vesamicol, 120 min",94%
same,"specific binding in % of total binding (corrected by nonspecific binding NB), mean","[2]; competitor 1.00E-09 M, experiment 2019-11-21, 2.20E-09 M 3H-vesamicol, 90 min",98%
same,"specific binding in % of total binding (corrected by nonspecific binding NB), mean","[2]; competitor 1.00E-10 M, experiment 2019-10-30, 2.92E-09 M 3H-vesamicol, 120 min",97%
same,"specific binding in % of total binding (corrected by nonspecific binding NB), mean","[2]; competitor 1.00E-10 M, experiment 2019-11-21, 2.20E-09 M 3H-vesamicol, 90 min",98%
same,"specific binding in % of total binding (corrected by nonspecific binding NB), mean","[2]; competitor 1.00E-11 M, experiment 2019-10-30, 2.92E-09 M 3H-vesamicol, 120 min",95%
same,"specific binding in % of total binding (corrected by nonspecific binding NB), mean","[2]; competitor 1.00E-11 M, experiment 2019-11-21, 2.20E-09 M 3H-vesamicol, 90 min",96%
COP(=O)(OC)C(O)C(Cl)(Cl)Cl (centres unmarked) [trichlorfon],EC50,"[6]; read-out: EC50 of trichlorfon paralysis, nemacol-1 15 μM",132 ± 34 µM
same,EC50,"[6]; read-out: EC50 of trichlorfon paralysis, nemacol-1 30 μM",178 ± 17 µM
same,EC50,"[6]; read-out: EC50 of trichlorfon paralysis, nemacol-1 60 μM",138 ± 60 µM
same,EC50,"[6]; read-out: EC50 of trichlorfon paralysis, trichlorfon alone",83 ± 7 µM
same,EC50,"[6]; read-out: EC50 of trichlorfon paralysis, vesamicol 31.3 μM",102 ± 11 µM
same,EC50,"[6]; read-out: EC50 of trichlorfon paralysis, vesamicol 62.5 μM",121 ± 10 µM
same,EC50,"[6]; read-out: EC50 of trichlorfon paralysis, vesamicol 125 μM",145 ± 17 µM
same,EC50,"[6]; read-out: EC50 of trichlorfon paralysis, vesamicol 250 μM",180 ± 22 µM
same,EC50,"[6]; read-out: EC50 of trichlorfon paralysis, vesamicol 500 μM",201 ± 27 µM
same,% para (percentage of animals able to adopt a clear sinusoidal wave pattern upon touch on the nose),"[6]; trichlorfon 25 uM, Nemacol-1 0 uM (Nemacol-1 series)",92.8571% and 100%
same,% para (percentage of animals able to adopt a clear sinusoidal wave pattern upon touch on the nose),"[6]; trichlorfon 25 uM, vesamicol 0 uM (vesamicol series)",92.8571% and 100%
same,% para (percentage of animals able to adopt a clear sinusoidal wave pattern upon touch on the nose),"[6]; trichlorfon 50 uM, Nemacol-1 0 uM (Nemacol-1 series)",85.7143% and 75% and 67.8571%
same,% para (percentage of animals able to adopt a clear sinusoidal wave pattern upon touch on the nose),"[6]; trichlorfon 50 uM, vesamicol 0 uM (vesamicol series)",71.4286% and 75% and 96.4286%
same,% para (percentage of animals able to adopt a clear sinusoidal wave pattern upon touch on the nose),"[6]; trichlorfon 100 uM, vesamicol 0 uM (vesamicol series)",42.8571% and 50%
same,% para (percentage of animals able to adopt a clear sinusoidal wave pattern upon touch on the nose),"[6]; trichlorfon 200 uM, Nemacol-1 0 uM (Nemacol-1 series)",7.143% and 3.571%
same,% para (percentage of animals able to adopt a clear sinusoidal wave pattern upon touch on the nose),"[6]; trichlorfon 400 uM, Nemacol-1 0 uM (Nemacol-1 series)",0%
same,% para (percentage of animals able to adopt a clear sinusoidal wave pattern upon touch on the nose),"[6]; trichlorfon 400 uM, vesamicol 0 uM (vesamicol series)",0% and 3.571%
same,% para (percentage of animals able to adopt a clear sinusoidal wave pattern upon touch on the nose),"[6]; trichlorfon 800 uM, Nemacol-1 0 uM (Nemacol-1 series)",0%
same,% para (percentage of animals able to adopt a clear sinusoidal wave pattern upon touch on the nose),"[6]; trichlorfon 800 uM, vesamicol 0 uM (vesamicol series)",0%
